Values joined by “and” are separate entries in the source; they are usually repeats but may differ in a detail not shown here. Equal entries are not always repeated. Where two headings read alike, the source gives them in different places. Marks after values point to notes of the source that are not given here.
Molecular target: HIV-1 protease (Human immunodeficiency virus type 1 group M subtype B, UniProt P04585)
Experiment: Fluorescence HIV-1 Protease Inhibitor Assay (Pandex)
Assay type: biochemical
Set-up: made in house; host or cells: E. coli K12 L507/pHP10D (NRRL B-18560)
[1] = normalized to positive control (=1.0), * = a calculated average
[2] = value as run, 35B value of the same run in footnote or parentheses
[3] = normalized to positive control (=1.0), * = a calculated average, read-out: Fluorescence Assay IC50 in ng/mL (converted)
[4] = value as run, 35B value of the same run in footnote or parentheses, read-out: Pandex IC50 ng/ml (converted)

CC(C)(C)NC(=O)C1CC2CCCCC2CN1CC(O)C(Cc1ccccc1)NC(=O)c1c(Cl)ccc(O)c1Cl (stereo not drawn) [Example 17, [3S-(3R*,4aR*,8aR*,2′S*,3′R*)]-2-[2′-Hydroxy-3′-phenylmethyl-4′-aza-5′-oxo-5′-(2″,6″-dichloro-3″-hydroxyphenyl)pentyl] decahydroisoquinoline-3-N-t-butylcarboxamide]
Fluorescence Assay IC50 in ng/mL [1]: 269* ng/mL
Pandex IC50 ng/ml [2]: 346^b ng/ml

CC(C)(C)NC(=O)C1CC2CCCCC2CN1CC(O)C(Cc1ccccc1)NC(=O)c1cccnc1Cl (stereo not drawn) [Example 2, [3S-(3R*,4aR*,8aR*,2′S*,3′R*)]-2-[2′-Hydroxy-3′-phenylmethyl-4′-aza-5′-oxo-5′-(2″-chloro-pyrid-3″-yl)pentyl] decahydroisoquinoline-3-N-t-butylcarboxamide]
IC50 [3]: 2000 nM
IC50 [4]: 963 nM

Cc1c(O)cccc1C(=O)N[C@@H](CSc1ccc2ccccc2c1)[C@H](O)CN1CCCC[C@H]1C(=O)NC(C)(C)C [Example 25, [2S-(2R*,2′S*,3′S*)]-1-[2′-Hydroxy-3′-(naphth-2-ylthiomethyl-4′-aza-5′-oxo-5′-(2″-methyl-3″-hydroxyphenyl)pentyl]piperidine-2-N-t-butylcarboxamide]
IC50 [3]: 5.68 nM
IC50 [4]: 3.55 nM and 25.4 nM

Cc1c(O)cccc1C(=O)NC(Cc1ccccc1)C(O)CN1CC2CCCCC2CC1C(=O)NC(C)(C)C (stereo not drawn) [Example 12, [3S-(3R*,4aR*,8aR*,2′S*,3′R*)]-2-[2′-Hydroxy-3′-phenylmethyl-4′-aza-5′-oxo-5′-(2″-methyl-3″-hydroxyphenyl)pentyl] decahydroisoquinoline-3-N-t-butylcarboxamide]
IC50 [3]: 15.5 nM
IC50 [4]: 21.3 nM and 5.23 nM and 17.5 nM

CC(C)(C)NC(=O)C1CC2CCCCC2CN1CC(O)C(Cc1ccccc1)NC(=O)c1ccccc1C(F)(F)F (stereo not drawn) [Example 15, [3S-(3R*,4aR*,8aR*,2′S*,3′R*)]-2-[2′-Hydroxy-3′-phenylmethyl-4′-aza-5′-oxo-5′-(2″-trifluoromethylphenyl)pentyl] decahydroisoquinoline-3-N-t-butylcarboxamide]
IC50 [3]: 657 nM
IC50 [4]: 315 nM

Cc1c(O)cccc1C(=O)NC(Cc1ccccc1)C(O)CN1CC2CCCCC2CC1C(=O)NC(C)(C)C (stereo not drawn) [Example 23, [3S-(3R*,4aR*,8aR*,2′S*,3′R*)]-2-[2′-Hydroxy-3′-phenylmethyl-4′-aza-5′-oxo-5′-(2″-methyl-3″-hydroxyphenyl)pentyl] decahydroisoquinoline-3-N-t-butylcarboxamide]
Fluorescence Assay IC50 [1]: 0.00025 µg/mL
Pandex IC50 ng/ml [2]: 0.2^c ng/ml and 0.16^d ng/ml and 0.2^b ng/ml

CC(C)c1c(O)cccc1C(=O)NC(Cc1ccccc1)C(O)CN1CC2CCCCC2CC1C(=O)NC(C)(C)C (stereo not drawn) [Example 20, [3S-(3R*,4aR*,8aR*,2′S*,3′R*)]-2-[2′-Hydroxy-3′-phenylmethyl-4′-aza-5′-oxo-5′-(2″-iospropyl-3″-hydroxyphenyl)pentyl] decahydroisoquinoline-3-N-t-butylcarboxamide]
IC50 [3]: 11.5 nM
IC50 [4]: 151 nM

Cc1c(O)cccc1C(=O)N[C@@H](Cc1ccccc1)[C@H](O)CN1CCN(Cc2cccnc2)C[C@H]1C(=O)NC(C)(C)C [Example 26, [2S-(2R*,2′S*,3′R*)]-1-[2′-Hydroxy-3′-phenylmethyl-4′-aza-5′-oxo-5′-(2″-methyl-3″-hydroxyphenyl)pentyl]-4-(pyrid-3′″-ylmethyl) piperazine-2-N-t-butylcarboxamide]
IC50 [3]: 5.4 nM
IC50 [4]: 4.01 nM

CCCCc1c(O)cccc1C(=O)NC(Cc1ccccc1)C(O)CN1CC2CCCCC2CC1C(=O)NC(C)(C)C (stereo not drawn) [Example 21, [3S-(3R*,4aR*,8aR*,2′S*,3′R*)]-2-[2′-Hydroxy-3′-phenylmethyl-4′-aza-5′-oxo-5′-(2″-butyl-3′″-hydroxyphenyl)pentyl] decahydroisoquinoline-3-N-t-butylcarboxamide]
IC50 [3]: 16.3 nM
IC50 [4]: 13.7 nM

Cc1c(O)cccc1C(=O)NC(CSc1ccc2ccccc2c1)C(O)CN1CC2CCCCC2CC1C(=O)NC(C)(C)C (stereo not drawn) [Example 24, [3S-(3R*,4aR*,8aR*,2′S*,3′R*)]-2-[2′-Hydroxy-3′-(naphth-2-ylthiomethyl)-4′-aza-5′-oxo-5′-(2″-methyl-3″-hydroxyphenyl)pentyl] decahydroisoquinoline-3-N-t-butylcarboxamide]
Pandex % at 20 ng/ml (at 20 ng/ml): 84%/20^d
IC50 [3]: 9.39 nM
IC50 [4]: 4.53 nM

CC(C)(C)NC(=O)C1CC2CCCCC2CN1CC(O)C(Cc1ccccc1)NC(=O)c1ccc[n+]([O-])c1 (stereo not drawn) [Example 5, [3S-(3R*,4aR*,8aR*,2′S*,3′R*)]-2-[2′-Hydroxy-3′-phenylmethyl-4′-aza-5′-oxo-5′-(pyrid-3″yl-N-oxidyl)pentyl] decahydroisoquinoline-3-N-t-butylcarboxamide]
IC50 [3]: 5030 nM
IC50 [4]: 1910 nM

CCc1c(O)cccc1C(=O)NC(Cc1ccccc1)C(O)CN1CC2CCCCC2CC1C(=O)NC(C)(C)C (stereo not drawn) [Example 3, [3S-(3R*,4aR*,8aR*,2′S*,3′R*)]-2-[2′-Hydroxy-3′-phenylmethyl-4′-aza-5′-oxo-5′-(2″-ethyl-3″-hydroxyphenyl)pentyl] decahydroisoguinoline-3-N-t-butylcarboxamide]
IC50 [3]: 44 nM
IC50 [4]: 21.1 nM

CC(C)(C)NC(=O)C1CC2CCCCC2CN1CC(O)C(Cc1ccccc1)NC(=O)c1cccc(O)c1Cl (stereo not drawn) [Example 11, [3S-(3R*,4aR*,8aR*,2′S*,3′R*)]-2-[2′-Hydroxy-3′-phenylmethyl-4′-aza-5′-oxo-5′-(2″-chloro-3″-hydroxyphenyl)pentyl] decahydroisoquinoline-3-N-t-butylcarboxamide]
IC50 [3]: 9.17 nM
IC50 [4]: 24.6 nM

CCCc1c(O)cccc1C(=O)NC(Cc1ccccc1)C(O)CN1CC2CCCCC2CC1C(=O)NC(C)(C)C (stereo not drawn) [Example 22, [3S-(3R*,4aR*,8aR*,2′S*,3′R*)]-2-[2′-Hydroxy-3′-phenylmethyl-4′-aza-5′-oxo-5′-(2″-propyl-3″-hydroxyphenyl)pentyl] decahydroisoquinoline-3-N-t-butylcarboxamide]
IC50 [3]: 1.29 nM
IC50 [4]: 124 nM

Cc1c(N)cccc1C(=O)NC(Cc1ccccc1)C(O)CN1CC2CCCCC2CC1C(=O)NC(C)(C)C (stereo not drawn) [Example 18, [3S-(3R*,4aR*,8aR*,2′S*,3′R*)]-2-[2′-Hydroxy-3′-phenylmethyl-4′-aza-5′-oxo-5′-(2″-methyl-3″-aminophenyl)pentyl] decahydroisoquinoline-3-N-t-butylcarboxamide]
IC50 [3]: 126 nM
IC50 [4]: 17.8 nM

[3S-(3R*,4aR*,8aR*,2′S*,3′S*)]-2-[2′-Hydroxy-3′-phenylmethyl-4′-aza-5′-oxo-5′-[2″-methyl-3″-N-(methylsulfonyl)amino-phenyl)]pentyl] decahydroisoguinoline-3-N-t-butylcarboxamide [Example 36]
Fluorescence Assay IC50 [1]: 0.062 µg/mL
Pandex IC50 ng/ml [2]: 93^e ng/ml

CC(C)(C)NC(=O)C1CC2CCCCC2CN1CC(O)C(Cc1ccccc1)NC(=O)c1cccc(O)c1F (stereo not drawn) [Example 1, [3S-(3R*,4aR*,8aR*,2′S*,3′R*)]-2-[2′-Hydroxy-3′-phenylmethyl-4′-aza-5′-oxo-5′-(2″-fluoro-3″-hydroxyphenyl)pentyl]decahydroisoquinoline-3-N-t-butylcarboxamide]
IC50 [3]: 1780 nM
IC50 [4]: 856 nM
